Data reported in patent US6291405A, “Glycol based drilling fluid” (M-I LLC, priority 1998, dated 2001).

Assays:
[1] = cited from earlier work; for toxicity ranking: based on laboratory test data, direct ingestion; for LD50: single-dose oral
[2] = Viscosity properties of glycols, Fann 35A viscometer readings; type: physicochemical
Protocol: Readings were taken on a Fann 35A viscometer at 600 and 300 rpm both at room temperature and 120° F.

[3] = Gumbo shale sticking test, diethylene glycol/water plus 10% GMO; details: in words
Protocol: This test was conducted using the test method described in example 2, except each test sample contained 10% glycerol monooleate (GMO) as the antisticking agent.

Compound | toxicity ranking [1] | LD50 [1] | Fann 35A viscometer reading ([2]; 120° F, 300 rpm) | Fann 35A viscometer reading ([2]; 120° F, 600 rpm) | Fann 35A viscometer reading ([2]; Room Temperature, 300 rpm) | Fann 35A viscometer reading ([2]; Room Temperature, 600 rpm) | antisticking properties [3]
OCCO [Ethylene Glycol, ethylene glycol] | the most toxic | 6-12 gm/KG | – | – | – | – | –
OCCOCCO [Diethylene Glycol, diethylene glycol] | followed by diethylene, triethylene, and dipropylene glycols | 16-21 gm/KG | – | – | – | – | –
dipropylene glycol | followed by diethylene, triethylene, and dipropylene glycols | ~ 15 gm/KG | 21 | 41 | 82 | 163 | –
CC(O)COC(C)COC(C)CO (centres unmarked) [Tripropylene Glycol, tripropylene glycol] | the most toxic | – | 18 | 34 | 59 | 116 | –
CC(O)CO (centres unmarked) [Propylene Glycol, propylene glycol] | the least toxic | 21-34 gm/KG | 15 | 28 | 47 | 92 | –
OCC(O)CO [Glycerine, reference compound] | – | – | 135 | 262 | > 300 | > 300 | –
CCCCCCCC/C=C\CCCCCCCC(=O)OCC(O)CO (centres unmarked) [glycerol monooleate] | – | – | – | – | – | – | improved the antisticking properties of the diethylene glycol fluids
butylene glycol | the least toxic | 23-30 gm/KG | – | – | – | – | –
CC(CO)CO [2-Methyl Propyl 1,3-Diol, reference compound] | – | – | 42 | 80 | 216 | > 300 | –
OCCOCCOCCO [Triethylene Glycol, triethylene glycol] | followed by diethylene, triethylene, and dipropylene glycols | 16-22 gm/KG | 16 | 31 | 42 | 83 | –
